Reference: patent publication US5478864A, “Method for disinfection using a 1,n-bis(N^5 -trifluoromethyl-phenyl-N^1 -biguanido)-alkane” (Mitsubishi Materials Corp., priority 1991, dated 1995)
Converted amounts (≈) assume the structure as drawn. Read-outs that look alike come from different tables or passages of the source.

How the values were obtained:
[1] = system: Staphylococcus aureus (clin'ly col'ted MRSA); assay: minimum growth inhibition concentration, agar dilution (second MRSA line); format: cell-based; settings: Mueller-Hinton agar, digluconate, clinically collected MRSA
Protocol: (§1) Germicidal activity of the compound prepared in Example 1 (Compound I) was evaluated by the minimum growth inhibition concentration method (based on the standard method stipulated by Japan Society of Chemotherapy) and the phenol coefficient method.
(§2) A portion of the digluconate salt of the compound of Example 1 was dissolved in water and the solution was heated to dryness on a water bath. The dried salt was dissolved in acetic acid (potentiometric titration grade) and the concentration thereof was determined by potentiometric titration using a perchloric acid solution. The gluconate acid salt solution, whose concentration was thus determined, was diluted to predetermined concentrations with sterilized water. Each 1 ml of the solution of each concentration was placed in a Petri dish, 9 ml of Mueller-Hinton agar (supplied by Difco) was added thereto and well mixed. Thus sensitivity test media were prepared. The concentrations of the compound were 200 μg/ml and 2^n times wherein (n=-8 to 2). Separately, microorganism strains indicated in Table 1 were subcultured in propagation media (using Mueller-Hinton broth supplied by Difco) at 37° C. for 24 hours. The microorganism concentration was adjusted to 10^6 /ml. The thus obtained cultures were respectively inoculated on a series of sensitivity measuring culture media using an inoculation rod. […] The results are shown in Table 1 together with the result on chlorhexidine as a control.
(§3) Disinfecting effect of the above-prepared compounds was tested by measurement of minimum growth inhibition concentration and by the test for immediate effect in the same manner as in Example 3.

[2] = system: some Gram-negative bacteria, especially Pyocyaneus bacilli; settings: cited from earlier work
[3] = administered to mucous membranes in a conventionally employed concentration; cited from earlier work
general bacteria = settings: cited from earlier work
[4] = system: Staphylococcus aureus (clin'ly col'ted MRSA); assay: minimum growth inhibition concentration, agar dilution (first MRSA line); format: cell-based
Protocol: as §1, §2, §3

[5] = system: Alcaligenes faecalis IPO 13111; assay: minimum growth inhibition concentration, agar dilution; format: cell-based; settings: IPO13111, Mueller-Hinton agar, digluconate
Protocol: as §1, §2, §3

Escherichia coli IID 861 [6] = assay: as above; format: cell-based
Protocol: as §1, §2, §3

[7] = system: Pseudomonas aerugimosa (clinically collected); assay: as above; format: cell-based; settings: Mueller-Hinton agar, digluconate
Protocol: as §1, §2, §3

[8] = system: Escherichia coli NIHJ JC-2; assay: as above; format: cell-based
Protocol: as §1, §2, §3

[9] = system: Klebsiella pneumoniae IID 865; assay: as above; format: cell-based
Protocol: as §1, §2, §3

[10] = system: Achromobacter xylosoxidans RIMD 0101001; assay: as above; format: cell-based; settings: RIMD0101001, Mueller-Hinton agar, digluconate
Protocol: as §1, §2, §3

Proteus vulgaris IID 874 = assay: as above; format: cell-based; settings: IID874, Mueller-Hinton agar, digluconate
Protocol: as §1, §2, §3

[11] = system: Pseudomonas cepacia (collected Chiba Univ.); assay: as above; format: cell-based; settings: Burkholderia cepacia, Mueller-Hinton agar, digluconate
Protocol: as §1, §2, §3

[12] = system: Staphylococcus epidermis IID 866; assay: as above; format: cell-based
Protocol: as §1, §2, §3

[13] = system: Flavobacterium meningosepticum RIMD 0614002; assay: as above; format: cell-based; settings: Elizabethkingia meningoseptica, RIMD0614002; Mueller-Hinton agar; digluconate
Protocol: as §1, §2, §3

[14] = system: Serratia marcescens IID 602; assay: as above; format: cell-based
Protocol: as §1, §2
(§4) Compounds of formula I, wherein the trifluoromethyl group is located at the p-position and n is 2, 3, 5, 8 and 11, were prepared starting from ethylene diamine dichloride, 1,3-propane diamine dichloride, 1,5-pentane diamine dichloride, 1,8-octane diamine dichloride or 1,11-undecane diamine dichloride, sodium dicyanamide and 4-trifluoromethyl aniline hydrochloride in accordance with the procedures as described above and minimum growth inhibition concentration (MIC) was determined in the same manner as above.
as §3
(§5) Compounds of formula I, wherein the trifluoromethyl group is located at the m-position and n is 2, 3, 5 and 8, 11 were prepared starting from ethylene diamine dihydrochloride, 1,3-propane diamine dihydrochloride, 1,5-pentane diamine dihydrochloride, 1,8-octane diamine dihydrochloride or 1,11-undecane diamine dihydrochloride, sodium dicyanamide and 3-trifluoromethylaniline hydrochloride in accordance with the procedures of Example 4 and germicidal activity thereof were determined in the same manner.

Escherichia coli IID 951 = assay: as above; format: cell-based
Protocol: as §1, §2, §4, §3, §5

[15] = system: Staphylococcus aureus FDA 209-P; assay: as above; format: cell-based; settings: FDA209, Mueller-Hinton agar
Protocol: as §1, §2, §4, §3, §5

[16] = system: Pseudomonas aeruginosa IID 1042; assay: as above; format: cell-based; settings: Pseudomonas aeruginosa, IID1042, Mueller-Hinton agar, read-out: MIC
Protocol: as §1, §2, §4, §3, §5

Escherichia coli IID 861 [17] = assay: test for immediate effect (phenol coefficient method); format: cell-based; settings: of three runs, conc. 0.001%, 20° C.
Protocol: (§6) Immediate effect of this compound was evaluated in accordance with the phenol coefficient method described in "Directions for Hygienic Tests" compiled by the Ministry of Health and Welfare of Japan. The method is as follows. (1) Culture medium Each 10 ml of the bouillon described below was taken into test tubes and they were sterilized with high pressure steam at 120° C. for 20 minutes. (2) Test method Diluted solutions of a series of concentrations of the sample compound were prepared for each of microorganisms listed in Table 2. Each 10 ml of the solutions was put into an appraisal test tube and the test tubes were placed in a thermostat bath kept at 20° C. Each microorganism was subcultured in the above described bouillon medium for testing disinfectants for three generations (37° C. for 48 hours). Each 1 ml of each culture was placed in each of the above-described series of appraisal test tubes and well mixed. After 2.5, 5, 10 and 15 minutes, 0.1 ml of the content of each appraisal test tube was taken and inoculated onto each portion of the bouillon medium for testing disinfectants. […] Each test was carried out three times. Immediate effect of disinfectants was compared by number of test runs in which microorganism growth was observed. […]

[18] = system: Staphylococcus aureus FDA 209-P; assay: as above; format: cell-based; settings: of three runs, conc. 0.0005%, 20° C.
Protocol: as §6

[19] = system: Pseudomonas aeruginosa IID 1042; assay: as above; format: cell-based; settings: of three runs, conc. 0.03%, 20° C.
Protocol: as §6

[20] = gluconate salt; cited from earlier work
other microorganisms = assay: minimum growth inhibition concentration, other microorganisms of Table 1; format: cell-based; settings: against other microorganisms
Protocol: as §1
A portion of the digluconate salt of the compound of Example 1 was dissolved in water and the solution was heated to dryness on a water bath. The dried salt was dissolved in acetic acid (potentiometric titration grade) and the concentration thereof was determined by potentiometric titration using a perchloric acid solution. The gluconate acid salt solution, whose concentration was thus determined, was diluted to predetermined concentrations with sterilized water. Each 1 ml of the solution of each concentration was placed in a Petri dish, 9 ml of Mueller-Hinton agar (supplied by Difco) was added thereto and well mixed. Thus sensitivity test media were prepared. The concentrations of the compound were 200 μg/ml and 2^n times wherein (n=-8 to 2). Separately, microorganism strains indicated in Table 1 were subcultured in propagation media (using Mueller-Hinton broth supplied by Difco) at 37° C. for 24 hours. The microorganism concentration was adjusted to 10^6 /ml. The thus obtained cultures were respectively inoculated on a series of sensitivity measuring culture media using an inoculation rod. […]

| Structure (SMILES) | MIC [1] [µg/mL] | MIC [5] [µg/mL] | MIC [7] [µg/mL] | MIC [10] [µg/mL] | MIC (Proteus vulgaris IID 874) [µg/mL] | MIC [11] [µg/mL] | MIC [13] [µg/mL] | MIC [15] [µg/mL] | MIC [16] [µg/mL] | number of test runs in which microorganism growth was observed (Escherichia coli IID 861 [17]; contact time 2.5 min) | number of test runs in which microorganism growth was observed (Escherichia coli IID 861 [17]; contact time 5.0 min) | number of test runs in which microorganism growth was observed (Escherichia coli IID 861 [17]; contact time 10.0 min) | number of test runs in which microorganism growth was observed (Escherichia coli IID 861 [17]; contact time 15.0 min) | number of test runs in which microorganism growth was observed ([18]; contact time 2.5 min) | number of test runs in which microorganism growth was observed ([18]; contact time 5.0 min) | number of test runs in which microorganism growth was observed ([18]; contact time 10.0 min) | number of test runs in which microorganism growth was observed ([18]; contact time 15.0 min) | number of test runs in which microorganism growth was observed ([19]; contact time 2.5 min) | number of test runs in which microorganism growth was observed ([19]; contact time 5.0 min) | number of test runs in which microorganism growth was observed ([19]; contact time 10.0 min) | other results |
| --- | --- | --- | --- | --- | --- | --- | --- | --- | --- | --- | --- | --- | --- | --- | --- | --- | --- | --- | --- | --- | --- |
| [H]/N=C(\N/C(=N/[H])NCCCCCCNC(=N)NC(=N)Nc1ccc(Cl)cc1)Nc1ccc(Cl)cc1 [CHXD, chlorhexidine, reference compound] | 3.13 (≈ 6.19 µM) | 50 (≈ 98.9 µM) | 100 (≈ 198 µM) | 25 (≈ 49.5 µM) | 200 (≈ 396 µM) | 100 (≈ 198 µM) | 200 (≈ 396 µM) | 0.78 (≈ 1.54 µM) | 100 (≈ 198 µM) | 3 | 3 | 3 | 3 | 3 | 1 | 0 | 0 | 2 | 1 | 0 | effect against some Gram-negative bacteria, especially Pyocyaneus bacilli [2]: less effective; shock symptoms [3]: sometimes causes shock symptoms; disinfecting effect (general bacteria): exhibits disinfecting effect on a wide range of general bacteria; MIC ([4]; MRSA): 6.25 µg/mL (≈ 12.4 µM); MIC (Escherichia coli IID 861 [6]; IID861): 1.56 µg/mL (≈ 3.09 µM); MIC ([8]; NIHJJC2): 1.56 µg/mL (≈ 3.09 µM); MIC ([9]; IID865): 6.25 µg/mL (≈ 12.4 µM); MIC ([12]; IID866): 1.56 µg/mL (≈ 3.09 µM); MIC ([14]; IID602): 6.25 µg/mL (≈ 12.4 µM); MIC (Escherichia coli IID 951; IID951): 1.56 µg/mL (≈ 3.09 µM); number of test runs in which microorganism growth was observed ([19]; contact time 15.0 min): 0; solubility in water [20]: high solubility in water |
| N=C(NCCCCCCNC(=N)NC(=N)Nc1ccc(C(F)(F)F)cc1)NC(=N)Nc1ccc(C(F)(F)F)cc1 [Ex. 1, 1,6-bis(N^5-p-trifluoromethylphenyl-N^1-biguanido)-hexane] | 1.56 (≈ 2.72 µM) | 6.25 (≈ 10.9 µM) | 12.5 (≈ 21.8 µM) | 50 (≈ 87.3 µM) | 25 (≈ 43.7 µM) | 50 (≈ 87.3 µM) | 200 (≈ 349 µM) | 1.56 (≈ 2.72 µM) | 12.5 (≈ 21.8 µM) | 3 | 3 | 2 | 1 | 0 | 0 | 0 | 0 | 0 | 0 | 0 | MIC ([4]; Mueller-Hinton agar, digluconate, clinically collected MRSA, first line, read-out: MIC): 6.25 µg/mL (≈ 10.9 µM); germicidal effect compared with chlorhexidine (other microorganisms): effective at the same level as chlorhexidine; MIC (Escherichia coli IID 861 [6]; IID861, Mueller-Hinton agar, digluconate, IID 861, read-out: MIC): 3.13 µg/mL (≈ 5.47 µM); MIC ([8]; NIHJJC2, Mueller-Hinton agar, digluconate, NIHJ JC-2, read-out: MIC): 3.13 µg/mL (≈ 5.47 µM); MIC ([9]; IID865, Mueller-Hinton agar, digluconate, read-out: MIC): 3.13 µg/mL (≈ 5.47 µM); MIC ([12]; IID866, Mueller-Hinton agar, digluconate, IID 866, read-out: MIC): 1.56 µg/mL (≈ 2.72 µM); MIC ([14]; IID602, Mueller-Hinton agar, IID 602, read-out: MIC): 6.25 µg/mL (≈ 10.9 µM); MIC (Escherichia coli IID 951; IID951, Mueller-Hinton agar, IID 951, read-out: MIC): 3.13 µg/mL (≈ 5.47 µM); number of test runs in which microorganism growth was observed ([19]; contact time 15.0 min): 0 |
